Results published in US20080095713A1, “Method of Tumour Imaging” (priority 2004, published 2008).
One block for each molecule: values may come before it.

What was measured:
[1] = Properties of the injected ^13C1-pyruvate composition at time of injection; type: physicochemical
Source text: The frequency calculated positioned the MR signal arising from ^13C1-alanine on resonance with ^13C1-lactate on the left and ^13C1-pyruvate resonating on the right of ^13C1-alanine. An unlocalised MR spectroscopy sequence was run to ensure that the 13C-MR coil and the system MR frequency had been set up correctly. The ^13C-image location was positioned to cover the tumour (slice thickness 10 mm, in plane pixel size 5×5 mm^2). In the reconstruction phase, the image data was zero-filled to result in 2.5×2.5×10 mm^3 resolution. ^13C1-pyruvate in TRIS buffer (90 mM) was injected in a dose of 10 ml/kg during a period of 12 s with a minimum volume of 2 ml into the tail vein and 30 s after the start of the injection (i.e. 18 s after finishing the injection), the chemical shift ^13C-MR sequence was started.
In total 30 different tumours were imaged in 18 rats. 1 rat failed and 3 tumours failed the biological criteria described in the preceding paragraph 5.5. […] The average polarisation of ^13C1-pyruvate at the time of injection was 21.2±2.9% (mean ±SD) and the pH was 8.08±0.14 (mean±SD).

[2] = tested on: R3230AC rat mammary adenocarcinoma; assay: In vivo ^13C-MR tumour imaging using hyperpolarised ^13C-pyruvate
Method: R3230AC is a rat mammary adenocarcinoma that can be maintained in female Fischer 344 rats. To establish the animal tumour model, a frozen vial of R32030 cells containing RPMI 1640, 10% FBS and 10% DMSO was rapidly thawed in 37° C. Thereafter, the cell solution was transferred to FBS and increasing volumes of RPMI 1640 were added. Finally, the cell suspension was transferred to a 25 cm^2 growth flask and put into an incubator at 37° C., 5% CO2. Growth media were changed every other day. At the day of rat infection, removal of cells was carried out either by mechanical force or by means of trypsin. Cells were washed using phosphate buffer lacking calcium and magnesium. Trypsin (0.05% trypsin in 0.02% EDTA) was added for 2-5 min. Then, 5 ml FBS was added and the cells were transferred into a beaker containing RPMI 1640 with FCS and antibiotics (100 IU/ml penicillin, 100 IU/ml streptomycin and 2.5 μg/ml amphotericin B). The cell solution was centrifugated and the cell pellet was resuspended in 20 ml RPMI with FBS and antibiotics, centrifugation and resuspension was repeated. The cells were then aliquoted to vials containing 4×10^6 cells/ml RPMI 1640. To obtain donor tumours, female Fischer 344 rats (Charles River, 180-200 g) were anaesthetised and 0.3 ml of the cell suspension was subcutaneously injected in the inguinal region on both sides. 15 and 22 days later, pieces of tumour were prepared as described in F. A. Burgener et al., Invest Radiol 22/6 (1987), 472-478; S. Saini et al., J. Magn. Reson. 129/1 (1997), 35-43). Two incisions were made on the ventral abdomen of recipient female Fischer rats. A tumour piece was inserted into each pocket and the incisions were closed. Rats were brought to imaging 12-14 days after tumour engrafting.
Weighed rats were anaesthetised using isoflurane (2-3%) and kept on a heated table to ensure a body temperature of about 37° C. A catheter was introduced into the tail vein and into the arteria carotis communis sinistra. The rats were transported to the MR machine and placed on a home-built pad that was heated to approx. 37° C. by means of circulating FC-104 Fluorinert. This liquid will not give rise to background signals in ^1H- and ^13C-MR imaging. Anaesthesia was continued by means of 1-2% isoflurane delivered via a long tube to an open-breathing system at a rate of 0.4 L/min. […]
Based on the proton frequency found by the MR system the MR frequency for ^13C1-alanine was calculated according to the following equation: […]
The frequency calculated positioned the MR signal arising from ^13C1-alanine on resonance with ^13C1-lactate on the left and ^13C1-pyruvate resonating on the right of ^13C1-alanine. […]

[3] = DNP polarisation, solid-state ^13C-NMR (enhanced vs thermal equilibrium signal); type: physicochemical; settings: 20 mM Tris(8-carboxy-2,2,6,6-tetra(hydroxyethoxy)methyl-benzo[1,2-d:4,5-d′]bis(1,3)dithiole-4-yl)methyl sodium salt, 1.2 K, 3.35 T, 93.950 GHz
Method: A 20 mM solution was prepared by dissolving Tris(8-carboxy-2,2,6,6-tetra(hydroxyethoxy)methyl-benzo [1,2-d:4,5-d′]-bis-(1,3)-dithiole-4-yl)methyl sodium salt in ^13C1-pyruvic acid (83.1 mg). The sample was mixed to homogeneity, placed in a sample cup and inserted in the DNP polariser. The sample was polarised under DNP conditions at 1.2 K in a 3.35 T magnetic field under irradiation with microwave (93.950 GHz). The ^13C-NMR signal from the sample was acquired using a Varian Inova-200 NMR spectrometer. The DNP enhancement was calculated from a measurement of the thermal equilibrium ^13C-NMR signal and the enhanced NMR signal. 16% ^13C polarisation was obtained.

[4] = T1 relaxation of ^13C-pyruvate in human full blood; type: physicochemical; settings: human full blood at 37° C.
Source text: The amount of alanine, bicarbonate and lactate is dependent on the metabolic status of the tissue under investigation.

[5] = DNP polarisation, dissolution and liquid-state ^13C-NMR assessment of polarisation; type: physicochemical; settings: 1.2 K, 3.35 T
Method: A 20 mM solution was prepared by dissolving 5.0 mg of the radical of Example 1 in ^13C1-pyruvic acid (164 μl). The sample was mixed to homogeneity and an aliquot of the solution (41 mg) was placed in a sample cup and inserted in the DNP polariser.
The sample was polarised under DNP conditions at 1.2 K in a 3.35 T magnetic field under irradiation with microwave (93.950 GHz). After 2 hours the polarisation was stopped and the sample was dissolved using a dissolution device according to WO-A-02/37132 in an aqueous solution of sodium hydroxide and tris(hydroxymethyl)-aminomethane (TRIS) to provide a neutral solution of hyperpolarized sodium^13C1-pyruvate. The dissolved sample was rapidly analysed with ^13C-NMR to assess the polarisation and a 19.0 % ^13C polarisation was obtained.
A 15 mM solution was prepared by dissolving the radical of Example 1 (209.1 mg) in a mixture of ^13C1-pyruvic acid (553 mg) and unlabelled pyruvic acid (10.505 g). […]
The sample was polarised under DNP conditions at 1.2 K in a 3.35 T magnetic field under irradiation with microwave (93.950 GHz). […] The filtered solution was rapidly analysed with ^13C-NMR to assess the polarisation, 16.5% ^13C polarisation was obtained. The residual radical concentration was subsequently analysed with a UV spectrophotometer at 469 nm and was determined to be below the detection limit of 0.1 μM.

[6] = rat, i.v. tail vein 10 ml/kg, imaging 30 s after start of injection

average polarisation at the time of injection ([1]; mean ±SD, ^13C1-pyruvate in TRIS buffer (90 mM)): 21.2±2.9% | pH ([1]; mean±SD, injected composition): 8.08±0.14
Compound: CC(=O)[13C](=O)O [^13C1-pyruvate]
overall rate of success ([2]; discrimination of tumour and healthy tissue, 26 out of 26 tumours): 100% | metabolic contrast in the tumour area, lactate signal [2, 6]: 24 out of 26 | metabolic contrast in the tumour area, lactate signal, alanine corrected [2, 6]: 26 out of 26 | metabolic contrast in the tumour area, lactate signal, pyruvate corrected [2, 6]: 26 out of 26

^13C polarisation [3]: 16%
Compound: CC(=O)[13C](=O)O [^13C1-pyruvic acid]

T1 relaxation [4]: about 42 s
Compound: CC(=O)[13C](=O)O [^13C-pyruvate]

^13C polarisation ([5]; 15 mM radical of Example 1 in ^13C1-pyruvic acid/unlabelled pyruvic acid, 4 hours, dissolved NaOH/TRIS, 0.5 M pyruvate, radical removed on C18 column): 16.5% | ^13C polarisation ([5]; 20 mM radical of Example 1 in ^13C1-pyruvic acid, 93.950 GHz, 2 hours, dissolved in NaOH/TRIS, liquid ^13C-NMR): 19.0%
Compound: CC(=O)[13C](=O)[O-].[Na+] [sodium ^13C1-pyruvate]
